Experimental data as given in Sander's compilation of Henry's law constants (doi:10.1002/jsfa.1137).

Test: Henry solubility constant Hcp at 310 K (mol/(m3 Pa))
Conditions: reference: van Ruth et al. (2002)

| Structure (SMILES) | Henry solubility constant Hcp at 310 K |
| --- | --- |
| CCCC(=O)OCC [ethyl butanoate] | 0.021 |
| CCCCCCC=O [heptanal] | 0.02 |
| CCCCCCCC=O [octanal] | 0.021 |
| CCCO [1-propanol] | 0.32 |
| CCCCCCCCC(C)=O [2-decanone] | 0.018 |
| CCCCCC(C)=O [2-heptanone] | 0.039 |
| CCCCOC(C)=O [butyl ethanoate] | 0.028 |
| CC(C)CCO [3-methyl-1-butanol] | 0.33 |
| CCCCCCC(C)=O [2-octanone] | 0.029 |
| CCCCCCO [1-hexanol] | 0.25 |
| CCCCCCCC(C)O (stereo not given) [2-nonanol] | 0.065 |
| CCOC(C)=O [ethyl ethanoate] | 0.039 |
| CSC [dimethyl sulfide] | 0.0064 |
| CCCC(C)O (stereo not given) [2-pentanol] | 0.3 |
| CCCOC(C)=O [propyl ethanoate] | 0.039 |
